Tests used:
[1] = test system: pentagastrin-stimulated acid secretion of the perfused rat stomach; experiment: Pentagastrin-stimulated acid secretion of the perfused rat stomach after intraduodenal administration; format: in vivo; details: anesthetized CD rat, dose 1.0 μmol/kg i.d.
Source text: Testing of the Secretion on the Perfused Rat Stomach
In Table A which follows, the influence of the compounds of the formula 1 according to aspect 3 of the invention on the pentagastrin-stimulated acid secretion of the perfused rat stomach after intraduodenal
The abdomen of anesthetized rats(CD rat, female, 200-250 g; 1.5 g/kg i.m. urethane) was opened after tracheotomy by a median upper abdominal incision and a PVC catheter was fixed transorally in the esophagus and another via the pylorus such that the ends of the tubes just projected into the gastric lumen. The catheter leading from the pylorus led outward into the right abdominal wall through a side opening.
After thorough rinsing (about 50-100 ml), warm (37° C.) physiological NaCl solution was continuously passed through the stomach (0.5 ml/min, pH 6.8-6.9; Braun-Unita I). The pH (pH meter 632, glass electrode EA 147; φ=5 mm, Metrohm) and, by titration with a freshly prepared 0.01 N NaOH solution to pH 7 (Dosimat 665 Metrohm), the secreted HCl were determined in the effluent in each case collected at an interval of 15 minutes.
The gastric secretion was stimulated by continuous infusion of 1 μg/kg (=1.65 ml/h) of i.v. pentagastrin (left femoral vein) about 30 min after the end of the operation (i.e. after determination of 2 preliminary fractions). The substances to be tested were administered intraduodenally in a 2.5 ml/kg liquid volume 60 min after the start of the continuous pentagastrin infusion.
The body temperature of the animals was kept at a constant 37.8-38° C. by infrared irradiation and heat pads (automatic, stepless control by means of a rectal temperature sensor).

| melting point | SMILES | Inhibition of acid secretion [1] |
| --- | --- | --- |
| 264 to 266 °C | CCc1cccc(C)c1CNc1nc(C(N)=O)cc2c1nc(C)n2C [Example 3, 4-(2-Ethyl-6-methyl-benzylamino)-1,2-dimethyl-1H-imidazo[4,5-c]pyridine-6-carboxylic Acid Amide] | >30% |
| 157 to 160 °C | CCc1cccc(C)c1CNc1nc(C(=O)NC)cc2c1nc(C)n2C [Example 4, 4-(2-Ethyl-6-methyl-benzylamino)-1,2-dimethyl-1H-imidazo[4,5-c]pyridine-6-carboxylic Acid Methylamide] | >30% |
| 180 to 181 °C | Cc1nc2c(OCc3ccccc3Cl)nccc2n1C [Example 8, 4-(2-Chloro-benzyloxy)-1,2-dimethyl-1H-imidazo[4,5-c]pyridine] | – |
| 164 to 165 °C | Cc1nc2c(OC3CCc4ccccc43)nccc2n1C (centres unmarked) [Example 10, 4-(Indan-1-yloxy)-1,2-dimethyl-1H-imidazo[4,5-c]pyridine] | – |
| > 111 °C (dec.) | CCOC(=O)c1cc2c(nc(C)n2C)c(NCc2c(C)cccc2CC)n1 [Example 12, 4-(2-Ethyl-6-methyl-benzylamino)-1,2-dimethyl-1H-imidazo[4,5-c]pyridine-6-carboxylic Acid Ethyl Ester] | – |
| 233 to 236 °C | CCc1cccc(C)c1CNc1nc(C(=O)O)cc2c1nc(C)n2C [Example 13, 4-(2-Ethyl-6-methyl-benzylamino)-1,2-dimethyl-1H-imidazo[4,5-c]pyridine-6-carboxylic Acid] | – |
| 105 °C | CCc1cccc(C)c1CNc1nc(OCCOC)cc2c1nc(C)n2C [Example 14, (2-Ethyl-6-methyl-benzyl)-[6-(2-methoxy-ethoxy)-1,2-dimethyl-1H-imidazo[4,5-c]pyridin-4-yl]-amine] | – |

Further lines, the molecule ahead of its results:

| SMILES | melting point | Inhibition of acid secretion [1] |
| --- | --- | --- |
| CCc1cccc(C)c1NCc1nccc2c1nc(C)n2C [Example 1, (1,2-Dimethyl-1H-imidazo[4,5-c]pyridin-4-ylmethyl)-(2-ethyl-6-methyl-phenyl)-amine] | 141 to 142 °C | – |
| CCc1cccc(C)c1CNc1nc(C(=O)N(C)C)cc2c1nc(C)n2C [Example 2, 4-(2-Ethyl-6-methyl-benzylamino)-1,2-dimethyl-1H-imidazo[4,5-c]pyridine-6-carboxylic Acid Dimethylamide] | 204 to 206 °C | >30% |
| CCc1cccc(C)c1CNc1nc(C(=O)NCCO)cc2c1nc(C)n2C [Example 5, 4-(2-Ethyl-6-methyl-benzylamino)-1,2-dimethyl-1H-imidazo[4,5-c]pyridine-6-carboxylic Acid (2-Hydroxy-ethyl)-amide] | 208 to 209 °C | – |
| Cc1nc2c(OCc3ccccc3)nccc2n1C [Example 7, 4-Benzyloxy-1,2-dimethyl-1H-imidazo[4,5-c]pyridine] | 115 to 116 °C | – |
| CCc1cccc(C)c1CNc1nc(OC)cc2c1nc(C)n2C [Example 15, (2-Ethyl-6-methyl-benzyl)-(6-methoxy-1,2-dimethyl-1H-imidazo[4,5-c]pyridin-4-yl)-amine] | 106 to 107 °C | – |
| CCc1cccc(C)c1CNc1nc(C(=O)N(C)C)cc2[nH]c(C)nc12 [Example 16, 4-(2-Ethyl-6-methyl-benzylamino)-2-methyl-1H-imidazo[4,5-c]pyridine-6-carboxylic Acid Dimethyl-amide] | 207 to 208 °C | >30% |

Source: US20060194782A1, “Pharmacologically active imidazo[4,5-c] pyridines” (Altana Pharma AG, priority 2003, published 2006)
